# Test results published in paper PMC6404402, “Design of indole- and MCR-based macrocycles as p53-MDM2 antagonists” (Beilstein Journal of Organic Chemistry, 2019).
# Where “and” joins values, the source holds several entries; their conditions need not be identical. Identical values can stand only once.
# Experiments:
# [1] = Ugi macrocyclisation (intramolecular U-4C-3CR type): alpha,omega-amino acid + indole-3-carboxaldehyde (imine formation, MW 120 °C, 1 h), then tert-butyl isocyanide (MW 120 °C, 1 h); ring bond formed = amide between carboxyl C and amine N (via Mumm acyl transfer); conditions: the molecule shown is the open-chain precursor, MeOH, 100.0 mM, 2.0 h
# [2] = target: 15N-labeled MDM2 (N-terminal domain of human MDM2, residues 1-118) (Homo sapiens, UniProt Q00987); assay: 1H,15N HSQC NMR titration of 15N-labeled MDM2; assay type: binding; conditions: 1H,15N HSQC titration, 7–9 ligand/protein ratios 0 to 5; 0.20–0.35 mM 15N MDM2; 50 mM phosphate pH 7.4, 150 mM NaCl, 5 mM DTT, 10% D2O; 300K; 50 mM ligand stock in DMSO; weighted mean of KD's of most perturbed residues in fast chemical exchange
# Chain of 15N-labeled MDM2 (N-terminal domain of human MDM2, residues 1-118) (Q00987 1-118): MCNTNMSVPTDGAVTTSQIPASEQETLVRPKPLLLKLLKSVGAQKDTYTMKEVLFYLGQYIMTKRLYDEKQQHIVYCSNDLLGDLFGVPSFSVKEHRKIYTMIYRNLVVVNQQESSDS
# Description: Protein expression and purification
# Fragment of the N-terminal domain of human MDM2 (residues 1-118) was cloned into the pET-20 (Novagen) and expressed in E. coli strain BL21-CodonPlus(DE3)-RIL as described previously.1 In brief, cells were cultured at 37 °C. Protein expression was induced with 1 mM IPTG at OD600 of 0.8 and cultured for additional 5 h at 37 °C. Cells were collected by centrifugation and lysed by sonication. Inclusion bodies were collected by centrifugation, washed with PBS containing 0.05% Triton-X100 and subsequently solubilized in 6 M guanidine hydrochloride in 100 mM Tris-HCl, pH 8.0, containing 1 mM EDTA and 10 mM β-mercaptoethanol. The protein was dialyzed against 4 M guanidine hydrochloride pH 3.5 supplemented with 10 mM β-mercaptoethanol. Following, the protein was refolded by dropwise addition into 10 mM Tris-HCl, pH 7.0, containing 1 mM EDTA and 10 mM β-mercaptoethanol and slow mixing overnight at 4 °C. Ammonium sulfate was added to the final concentration of 1.5 M and the refolded protein was recovered on Butyl Sepharose 4 Fast Flow (GE Healthcare). […]
# Uniform 15N isotope labeling was achieved by expression of the protein in the M9 minimal media containing 15NH4Cl as the sole nitrogen source. […] Water suppression was carried out using the WATERGATE sequence.2 All the spectra were recorded at 300K using a Bruker Avance 600 MHz spectrometer with the Cryo-Platform.
compound,measurement,setting,value
O=C(O)COCC(=O)NCCCCCCN=Cc1c[nH]c2ccccc12,"ring closure, isolated yield",[1]; 13-membered ring,51%
O=C(O)COCC(=O)NCCCCN=Cc1c[nH]c2ccccc12 [2a],"ring closure, isolated yield",[1]; 11-membered ring,40%
O=C(O)COCC(=O)NCCCCCN=Cc1c[nH]c2ccccc12 [2b],"ring closure, isolated yield",[1]; 12-membered ring,35%
O=C(O)COCC(=O)NCCCCCCCCN=Cc1c[nH]c2ccccc12 [2d],"ring closure, isolated yield",[1]; 15-membered ring,33%
O=C(O)COCC(=O)NCCCCCCCCCCN=Cc1c[nH]c2ccccc12 [2e],"ring closure, isolated yield",[1]; 17-membered ring,31%
O=C(O)COCC(=O)NCCCCCCCCCCCCN=Cc1c[nH]c2ccccc12 [2f],"ring closure, isolated yield",[1]; 19-membered ring,59%
CC(C)(C)NC(=O)C(c1c[nH]c2cc(Cl)ccc12)N1CCCCCCNC(=O)COCC1=O (centres unmarked) [2g],Kd,[2],9 µM and 8.9 µM
O=C(O)COCC(=O)NCCCCCCN=Cc1c[nH]c2cc(Cl)ccc12 [2g],"ring closure, isolated yield",[1]; 13-membered ring,35%
O=C(O)COCC(=O)NCCCCCCCCN=Cc1c[nH]c2cc(Cl)ccc12 [2h],"ring closure, isolated yield",[1]; 15-membered ring,25%
O=C(O)COCC(=O)NCCCCCCCCCCN=Cc1c[nH]c2cc(Cl)ccc12 [2i],"ring closure, isolated yield",[1]; 17-membered ring,51%
O=C(O)COCC(=O)NCCCCCCCCCCCCN=Cc1c[nH]c2cc(Cl)ccc12 [2j],"ring closure, isolated yield",[1]; 19-membered ring,60%
O=C(O)CSCC(=O)NCCCCN=Cc1c[nH]c2cc(Cl)ccc12 [2k],"ring closure, isolated yield",[1]; 11-membered ring,29%
O=C(O)CSCC(=O)NCCCCCN=Cc1c[nH]c2cc(Cl)ccc12 [2l],"ring closure, isolated yield",[1]; 12-membered ring,35%
O=C(O)CSCC(=O)NCCCCCCN=Cc1c[nH]c2cc(Cl)ccc12 [2m],"ring closure, isolated yield",[1]; 13-membered ring,39%
O=C(O)CSCC(=O)NCCCCCCCCN=Cc1c[nH]c2cc(Cl)ccc12 [2n],"ring closure, isolated yield",[1]; 15-membered ring,39%
O=C(O)CSCC(=O)NCCCCCCCCCCN=Cc1c[nH]c2cc(Cl)ccc12 [2o],"ring closure, isolated yield",[1]; 17-membered ring,41%
O=C(O)CSCC(=O)NCCCCCCCCCCCCN=Cc1c[nH]c2cc(Cl)ccc12 [2p],"ring closure, isolated yield",[1]; 19-membered ring,52%
